# Test results: patent US8962576B2, “Compositions and method for improving endothelial function and cardiovascular health” (Natreon, Inc., priority 2012, dated 2015)
# Where “and” joins values, the source holds several entries; their conditions need not be identical. Equal values may be shown once.
# Test system: Type 2 Diabetic Subjects
# Test: Lipid profile, study (a), 12 weeks treatment
# Format: in vivo, human
# Conditions: Sensoril or Capros 250 mg twice daily, Atorvastatin 10 mg at night, n = 10
# Method: Study (a) design. Patients of either sex, aged 18-75 years, fasting plasma glucose of ≧110 mg/dL, a glycosylated hemoglobin (HbA1c) between 7% and 10% and taking stable doses of anti-diabetic treatment for the past 8 weeks prior to the screening visit; and having endothelial dysfunction defined as ≦6% change in reflection index (RI) on post salbutamol challenge test were included in the study. Patients with severe uncontrolled hyperglycaemia, uncontrolled hypertension, cardiac arrhythmia, impaired hepatic or renal function, history of malignancy or stroke, smoking, chronic alcoholism, any other serious disease requiring active treatment and treatment with any other herbal supplements, were excluded from the study. Pregnant and lactating women were also excluded.
# All the eligible subjects were randomized to receive either one of the four treatments for duration of 12 weeks. There were ten (10) subjects per group. […] Subjects were asked to revisit for follow up at 4, 8 and 12 weeks of therapy. At each visit they were evaluated for efficacy and safety. Pharmacodynamic evaluation for endothelial function was conducted at every visit. Blood samples were collected for evaluation of biomarkers before and at the end of treatment. Safety lab investigations were conducted before and at the end of the study and as and when required in case of any adverse drug reaction (ADR). Subjects were examiner and/or surveyed for the presence of ADR and the same was recorded in the case report form. Compliance was assessed by pill count method.
# All the subjects had undergone complete physical examination, safety lab evaluations at baseline, i.e., prior to treatment, and at the end of the treatment. Samples were collected after an overnight fast of 12 hrs after the last dose of medication for determination of haemoglobin level, glycosylated hemoglobin (HbA1c), urea and creatinine levels, liver function, and lipid profile (total cholesterol, high density lipoprotein cholesterol (HDL-C), and low density lipoprotein cholesterol (LDL-C)). Plasma glucose, liver function test, blood urea, serum creatinine and HbA1c were measured using appropriate standard techniques.
smiles,measurement,setting,value
CC(C)c1c(C(=O)Nc2ccccc2)c(-c2ccccc2)c(-c2ccc(F)cc2)n1CC[C@@H](O)C[C@@H](O)CC(=O)O [Atorvastatin],HDL-C,"Post treatment, 12 weeks",48.2±6.01 mg/dL and 48.2 ± 6.01$ mg/dL
same,LDL-C,"Post treatment, 12 weeks",87.6 ± 19.07 mg/dL
same,Total Cholesterol,"Post treatment, 12 weeks",146 ± 24.52 mg/dL
same,Triglycerides,"Post treatment, 12 weeks",102.8 ± 40.61 mg/dL
same,HDL-C,Pre treatment,42.77 ± 6.13 mg/dL
same,LDL-C,Pre treatment,133.2 ± 38.09 mg/dL
same,Total Cholesterol,Pre treatment,185.7 ± 36.38 mg/dL
same,Triglycerides,Pre treatment,169.1 ± 67.51 mg/dL
